{"source": "patent US20220331274A1", "about": "“METHODS OF TREATING CANCER” (Inspirna, Inc., priority 2019, published 2022)", "key": {"OAT1": {"molecular_target": "OAT1 (Homo sapiens, UniProt Q4U2R8)", "sequence (Q4U2R8 whole entry)": "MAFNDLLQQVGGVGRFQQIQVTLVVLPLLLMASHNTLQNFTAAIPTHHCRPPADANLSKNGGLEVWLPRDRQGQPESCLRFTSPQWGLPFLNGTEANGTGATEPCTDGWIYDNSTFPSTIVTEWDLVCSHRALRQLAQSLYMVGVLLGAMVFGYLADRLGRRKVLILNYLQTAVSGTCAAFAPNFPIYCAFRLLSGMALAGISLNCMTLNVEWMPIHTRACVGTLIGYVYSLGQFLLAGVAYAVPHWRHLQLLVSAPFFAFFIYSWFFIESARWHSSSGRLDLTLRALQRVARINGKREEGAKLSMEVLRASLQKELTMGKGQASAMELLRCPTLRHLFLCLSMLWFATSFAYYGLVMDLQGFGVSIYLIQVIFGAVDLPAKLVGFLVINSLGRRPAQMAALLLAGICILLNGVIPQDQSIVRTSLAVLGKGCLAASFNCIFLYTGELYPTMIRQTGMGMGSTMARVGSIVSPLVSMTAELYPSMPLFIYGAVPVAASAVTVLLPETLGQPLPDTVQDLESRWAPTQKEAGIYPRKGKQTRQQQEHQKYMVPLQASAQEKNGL", "assay": "transporter inhibition in vitro", "type": "in vitro ADME"}, "CYP1A2": {"test_system": "CYP1A2", "assay": "CYP induction in primary cultures of cryopreserved hepatocytes", "type": "in vitro ADME"}, "CYP2B6": {"test_system": "CYP2B6", "assay": "CYP induction in primary cultures of cryopreserved hepatocytes", "type": "in vitro ADME"}, "[1]": {"assay": "oral PK study in CD-1 mice", "type": "in vivo"}, "2B6": {"molecular_target": "2B6 (Homo sapiens, UniProt P20813)", "sequence (P20813 whole entry)": "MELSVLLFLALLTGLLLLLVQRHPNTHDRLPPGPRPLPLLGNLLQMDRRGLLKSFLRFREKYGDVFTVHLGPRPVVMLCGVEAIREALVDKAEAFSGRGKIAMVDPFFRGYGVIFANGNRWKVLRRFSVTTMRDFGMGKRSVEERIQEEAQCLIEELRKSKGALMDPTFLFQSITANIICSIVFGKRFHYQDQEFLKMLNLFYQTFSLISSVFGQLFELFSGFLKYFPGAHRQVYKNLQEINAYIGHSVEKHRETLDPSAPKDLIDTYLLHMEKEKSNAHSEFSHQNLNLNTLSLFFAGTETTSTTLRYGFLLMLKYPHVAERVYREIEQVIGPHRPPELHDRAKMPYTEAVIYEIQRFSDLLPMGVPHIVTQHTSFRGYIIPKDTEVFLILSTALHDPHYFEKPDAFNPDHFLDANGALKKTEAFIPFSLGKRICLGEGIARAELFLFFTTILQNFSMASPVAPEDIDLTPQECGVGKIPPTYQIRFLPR", "assay": "in vitro CYP450 inhibition", "type": "in vitro ADME"}, "MDSCs": {"test_system": "MDSCs", "assay": "reduction of MDSCs in circulation and in tumors", "type": "in vivo"}, "CYP2C19": {"molecular_target": "CYP2C19 (Homo sapiens, UniProt P33261)", "sequence (P33261 whole entry)": "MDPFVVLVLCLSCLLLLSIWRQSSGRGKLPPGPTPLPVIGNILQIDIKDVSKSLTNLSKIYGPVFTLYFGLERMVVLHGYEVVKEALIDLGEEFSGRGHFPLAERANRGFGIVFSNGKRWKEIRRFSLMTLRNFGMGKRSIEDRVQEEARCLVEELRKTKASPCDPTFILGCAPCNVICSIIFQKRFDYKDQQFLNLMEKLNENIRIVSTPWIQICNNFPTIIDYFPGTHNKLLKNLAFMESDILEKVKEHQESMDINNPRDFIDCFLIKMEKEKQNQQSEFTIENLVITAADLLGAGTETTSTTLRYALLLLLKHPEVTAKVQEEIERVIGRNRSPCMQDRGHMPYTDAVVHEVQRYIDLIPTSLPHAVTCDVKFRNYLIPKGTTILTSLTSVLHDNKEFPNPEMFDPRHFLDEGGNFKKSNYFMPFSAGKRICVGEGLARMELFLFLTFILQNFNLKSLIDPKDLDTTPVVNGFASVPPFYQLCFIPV", "assay": "in vitro CYP metabolism", "type": "in vitro ADME"}, "CYP2E1": {"molecular_target": "CYP2E1 (Homo sapiens, UniProt P05181)", "sequence (P05181 whole entry)": "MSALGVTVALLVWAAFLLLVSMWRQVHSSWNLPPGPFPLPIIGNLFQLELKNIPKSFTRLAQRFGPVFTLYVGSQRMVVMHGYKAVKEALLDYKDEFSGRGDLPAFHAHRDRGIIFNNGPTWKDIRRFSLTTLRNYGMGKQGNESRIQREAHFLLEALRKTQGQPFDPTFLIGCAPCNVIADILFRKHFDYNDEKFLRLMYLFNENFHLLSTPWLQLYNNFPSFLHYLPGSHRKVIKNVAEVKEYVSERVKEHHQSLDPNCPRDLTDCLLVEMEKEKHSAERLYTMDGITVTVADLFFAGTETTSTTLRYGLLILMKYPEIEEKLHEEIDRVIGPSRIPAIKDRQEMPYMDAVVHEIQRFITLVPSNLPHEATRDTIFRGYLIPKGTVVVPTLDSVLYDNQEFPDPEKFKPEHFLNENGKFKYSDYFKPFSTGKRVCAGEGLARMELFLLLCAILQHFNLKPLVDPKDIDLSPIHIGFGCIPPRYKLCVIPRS", "assay": "in vitro CYP metabolism", "type": "in vitro ADME"}, "OATP1B3": {"molecular_target": "OATP1B3 (Homo sapiens, UniProt Q9NPD5)", "assay": "uptake transporter inhibition in vitro", "type": "in vitro ADME"}, "[2]": {"test_system": "melanoma, glioblastoma, TNBC, ovarian cancer, and lung cancer", "assay": "syngeneic and human xenograft mouse tumor models, primary tumor growth", "type": "in vivo"}, "ApoE [3]": {"test_system": "ApoE", "assay": "ApoE gene expression induction in cancer cells", "type": "cell-based", "conditions": "compared to control cells"}, "3A4": {"molecular_target": "3A4 (Homo sapiens, UniProt P08684)", "assay": "in vitro CYP450 inhibition", "type": "in vitro ADME"}, "[4]": {"assay": "oral PK study in Sprague-Dawley rats", "type": "in vivo"}, "1A1": {"molecular_target": "1A1 (Homo sapiens, UniProt P04798)", "sequence (P04798 whole entry)": "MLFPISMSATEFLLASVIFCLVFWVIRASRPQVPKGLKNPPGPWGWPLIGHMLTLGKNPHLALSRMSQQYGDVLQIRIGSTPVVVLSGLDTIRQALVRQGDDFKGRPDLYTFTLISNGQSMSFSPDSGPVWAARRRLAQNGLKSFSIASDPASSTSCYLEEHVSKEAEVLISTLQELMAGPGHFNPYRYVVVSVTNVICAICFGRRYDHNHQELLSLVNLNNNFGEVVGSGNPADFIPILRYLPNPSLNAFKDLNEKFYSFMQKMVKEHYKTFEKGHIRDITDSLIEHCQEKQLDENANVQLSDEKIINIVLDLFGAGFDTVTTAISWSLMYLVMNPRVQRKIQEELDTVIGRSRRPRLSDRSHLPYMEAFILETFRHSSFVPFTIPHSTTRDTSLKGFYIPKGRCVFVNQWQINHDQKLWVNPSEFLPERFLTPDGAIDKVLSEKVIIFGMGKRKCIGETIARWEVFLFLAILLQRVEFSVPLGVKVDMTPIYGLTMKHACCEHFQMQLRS", "assay": "in vitro CYP450 inhibition", "type": "in vitro ADME"}, "2D6": {"molecular_target": "2D6 (Homo sapiens, UniProt P10635)", "sequence (P10635 whole entry)": "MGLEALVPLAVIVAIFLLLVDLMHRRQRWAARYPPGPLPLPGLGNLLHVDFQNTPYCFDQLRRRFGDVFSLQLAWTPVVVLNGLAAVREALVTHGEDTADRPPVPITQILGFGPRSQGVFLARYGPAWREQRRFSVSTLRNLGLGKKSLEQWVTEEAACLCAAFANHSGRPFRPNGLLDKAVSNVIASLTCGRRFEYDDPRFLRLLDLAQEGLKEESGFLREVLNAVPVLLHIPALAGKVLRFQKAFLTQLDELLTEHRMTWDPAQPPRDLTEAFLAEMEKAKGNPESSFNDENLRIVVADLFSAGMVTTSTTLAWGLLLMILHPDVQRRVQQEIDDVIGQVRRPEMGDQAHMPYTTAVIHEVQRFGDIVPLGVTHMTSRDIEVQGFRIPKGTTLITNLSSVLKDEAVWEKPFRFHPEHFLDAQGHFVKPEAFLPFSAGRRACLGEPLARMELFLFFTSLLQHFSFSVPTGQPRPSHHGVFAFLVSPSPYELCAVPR", "assay": "in vitro CYP450 inhibition", "type": "in vitro ADME"}, "CYP2C9": {"molecular_target": "CYP2C9 (Homo sapiens, UniProt P11712)", "sequence (P11712 whole entry)": "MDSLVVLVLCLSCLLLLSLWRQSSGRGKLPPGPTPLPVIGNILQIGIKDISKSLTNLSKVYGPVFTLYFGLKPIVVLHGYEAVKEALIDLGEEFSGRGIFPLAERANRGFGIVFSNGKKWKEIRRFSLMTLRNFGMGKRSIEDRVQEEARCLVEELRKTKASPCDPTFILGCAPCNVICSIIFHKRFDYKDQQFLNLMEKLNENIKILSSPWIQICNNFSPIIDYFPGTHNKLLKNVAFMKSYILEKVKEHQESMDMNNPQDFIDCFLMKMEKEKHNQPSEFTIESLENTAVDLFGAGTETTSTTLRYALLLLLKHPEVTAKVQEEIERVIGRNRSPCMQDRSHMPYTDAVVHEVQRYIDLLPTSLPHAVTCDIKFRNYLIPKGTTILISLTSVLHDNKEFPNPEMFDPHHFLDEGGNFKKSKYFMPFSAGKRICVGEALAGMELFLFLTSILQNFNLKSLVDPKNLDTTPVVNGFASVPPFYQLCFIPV", "assay": "in vitro CYP metabolism", "type": "in vitro ADME"}, "CYP3A4": {"molecular_target": "CYP3A4 (Homo sapiens, UniProt P08684)", "assay": "in vitro CYP metabolism", "type": "in vitro ADME"}, "OCT2": {"molecular_target": "OCT2 (Homo sapiens, UniProt O15244)", "assay": "transporter inhibition in vitro", "type": "in vitro ADME"}, "ApoE [5]": {"test_system": "ApoE", "assay": "ApoE gene expression induction in hPBMCs", "type": "cell-based, human", "conditions": "compared to control cells"}, "LXRα": {"molecular_target": "LXRα (Homo sapiens, UniProt Q13133)", "sequence (Q13133 whole entry)": "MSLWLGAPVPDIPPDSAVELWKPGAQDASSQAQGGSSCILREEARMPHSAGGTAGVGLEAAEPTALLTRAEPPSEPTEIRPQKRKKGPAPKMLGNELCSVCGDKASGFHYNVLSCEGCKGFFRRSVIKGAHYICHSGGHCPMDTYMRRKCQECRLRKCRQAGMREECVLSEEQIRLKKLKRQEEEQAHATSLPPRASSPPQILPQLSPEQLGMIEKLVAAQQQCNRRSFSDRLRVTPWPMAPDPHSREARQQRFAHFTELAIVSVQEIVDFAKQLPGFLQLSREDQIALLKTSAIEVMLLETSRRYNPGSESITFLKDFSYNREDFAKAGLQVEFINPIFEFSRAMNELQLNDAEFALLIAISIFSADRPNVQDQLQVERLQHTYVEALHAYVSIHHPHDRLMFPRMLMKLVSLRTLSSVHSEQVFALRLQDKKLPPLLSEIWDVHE", "assay": "cell-based biosensor assay", "conditions": "read-out: median effective concentration (EC50) for LXRα"}, "[6]": {"assay": "Example 1: adverse event profile of full and reduced regimens with docetaxel", "type": "in vivo", "experimental": "Protocol: Three subjects was administered Regimen 1 (Full): 35 mg/m^2 of docetaxel on days 1, 8, and 15 of every 28-day cycle and 80 mg of 2-[3-[(3R)-3-[[2-chloro-3-(trifluoromethyl)phenyl]methyl-(2,2-diphenylethyl)amino]butoxy]phenyl]acetic acid twice per day daily throughout treatment. Seven subjects was administered Regimen 2 (Reduced): 28 mg/m^2 of docetaxel on days 1, 8, and 15 of every 28-day cycle and 80 mg of 2-[3-[(3R)-3-[[2-chloro-3-(trifluoromethyl)phenyl]methyl-(2,2-diphenylethyl)amino]butoxy]phenyl]acetic acid twice per day for five continuous days followed by a 2 day rest period throughout treatment. One subject that was administered Regimen 2 received 35 mg/m^2 of docetaxel on days 1 and 80 mg of 2-[3-[(3R)-3-[[2-chloro-3-(trifluoromethyl)phenyl]methyl-(2,2-diphenylethyl)amino]butoxy]phenyl]acetic acid twice per day for the first seven days of treatment prior to switching to the reduced treatment schedule for the remainder of the 28-day cycle."}, "CYP2C8": {"molecular_target": "CYP2C8 (Homo sapiens, UniProt P10632)", "assay": "in vitro CYP450 inhibition", "type": "in vitro ADME", "conditions": "read-out: 50% inhibitory concentration [IC50] CYP2C8"}, "[7]": {"assay": "single agent therapy in subjects, toxicities", "type": "in vivo"}, "LXRβ": {"molecular_target": "LXRβ (Homo sapiens, UniProt P55055)", "sequence (P55055 whole entry)": "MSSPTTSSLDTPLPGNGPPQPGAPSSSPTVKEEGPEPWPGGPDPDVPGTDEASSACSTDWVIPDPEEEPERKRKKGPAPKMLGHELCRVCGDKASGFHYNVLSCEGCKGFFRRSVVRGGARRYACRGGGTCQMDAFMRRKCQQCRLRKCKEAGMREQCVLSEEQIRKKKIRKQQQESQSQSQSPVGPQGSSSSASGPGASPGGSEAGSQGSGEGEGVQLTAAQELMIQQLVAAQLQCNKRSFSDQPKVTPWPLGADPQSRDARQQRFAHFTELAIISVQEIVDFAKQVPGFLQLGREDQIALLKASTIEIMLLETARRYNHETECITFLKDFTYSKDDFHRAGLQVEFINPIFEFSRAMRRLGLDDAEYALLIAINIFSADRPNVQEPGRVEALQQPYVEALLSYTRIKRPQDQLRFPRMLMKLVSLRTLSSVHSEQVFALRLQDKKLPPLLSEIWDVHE", "assay": "cell-based biosensor assay"}, "2E1": {"molecular_target": "2E1 (Homo sapiens, UniProt P05181)", "sequence (P05181 whole entry)": "as the sequence (P05181 whole entry) above", "assay": "in vitro CYP450 inhibition", "type": "in vitro ADME"}, "2A6": {"molecular_target": "2A6 (Homo sapiens, UniProt P11509)", "assay": "in vitro CYP450 inhibition", "type": "in vitro ADME"}, "2C19": {"molecular_target": "2C19 (Homo sapiens, UniProt P33261)", "sequence (P33261 whole entry)": "as the sequence (P33261 whole entry) above", "assay": "in vitro CYP450 inhibition", "type": "in vitro ADME"}, "[8]": {"assay": "safety pharmacology, ECG and heart rate in dogs", "type": "in vivo"}, "[9]": {"conditions": "Regimen 1 (Full): 80 mg twice per day daily + docetaxel 35 mg/m^2, 3 cycles"}, "[10]": {"conditions": "Regimen 2 (Reduced): 80 mg twice per day 5 days then 2 day rest + docetaxel 28 mg/m^2, 20 cycles"}}, "data": [{"smiles": "C[C@H](CCOc1cccc(CC(=O)O)c1)N(Cc1cccc(C(F)(F)F)c1Cl)CC(c1ccccc1)c1ccccc1", "note": "[2-[3-[(3R)-3-[[2-chloro-3-(trifluoromethyl)phenyl]methyl-(2,2-diphenylethyl)amino]butoxy]phenyl]acetic acid]", "values": [{"measurement": "inhibition at 50 µM", "setting": "OAT1", "value": "< 50", "unit": "%"}, {"measurement": "induction of CYP1A2", "setting": "CYP1A2", "value": "did not induce"}, {"measurement": "CYP2B6 induction", "setting": "CYP2B6; 1 concentration in ⅓ donors", "value": "> 2", "unit": "fold"}, {"measurement": "potential to induce CYP2B6", "setting": "CYP2B6; cryopreserved hepatocytes", "value": "cannot be ruled out"}, {"measurement": "half-life", "setting": "[1]; CD-1, mouse, plasma, po, mice, read-out: mean apparent oral half-life (t½)", "value": "6.5 to 8", "unit": "h"}, {"measurement": "Tmax", "setting": "[1]; both sexes, mouse, plasma, po, CD-1 mice, males and females, read-out: time to maximum plasma concentration (Tmax)", "value": "2 to 8", "unit": "h"}, {"measurement": "food effect: plasma concentrations higher in the fed state", "setting": "[1]; mice, fed state", "value": "> 2", "unit": "fold"}, {"measurement": "bioavailability", "setting": "[1]; mouse, plasma, CD-1 mice, oral, read-out: absolute oral bioavailability (% F)", "value": "> 100", "unit": "%"}, {"measurement": "IC50", "setting": "2B6", "value": 15, "unit": "µM"}, {"measurement": "reduction of MDSCs in circulation", "setting": "MDSCs; in circulation", "value": "~40", "unit": "%"}, {"measurement": "reduction of MDSCs in tumors", "setting": "MDSCs; in tumors", "value": "> 60", "unit": "%"}, {"measurement": "substrate for CYP2C19", "setting": "CYP2C19", "value": "a substrate"}, {"measurement": "substrate for CYP2E1", "setting": "CYP2E1", "value": "a substrate"}, {"measurement": "IC50", "setting": "OATP1B3", "value": 3.7, "unit": "µM"}, {"measurement": "anti-tumor activity", "setting": "[2]; animal models of glioblastoma, triple negative breast cancer (TNBC) and lung cancer", "value": "demonstrated"}, {"measurement": "inhibition of primary tumor growth", "setting": "[2]; extent varied with model", "value": "48-95%"}, {"measurement": "ApoE gene expression induction", "setting": "ApoE [3]", "value": 3, "unit": "fold"}, {"measurement": "inhibition of 3A4", "setting": "3A4", "value": "very weakly inhibited"}, {"measurement": "half-life", "setting": "[4]; Sprague-Dawley, rat, plasma, po, female rats, read-out: mean apparent oral t½ (converted)", "value": 6.5, "unit": "h"}, {"measurement": "clearance, female versus male rats", "setting": "[4]; all dose levels, higher systemic exposure in females", "value": "cleared at a lower rate in female rats compared to males"}, {"measurement": "Tmax", "setting": "[4]; both sexes, rat, plasma, po, Sprague-Dawley rats, males and females", "value": "4 to 8", "unit": "h"}, {"measurement": "bioavailability", "setting": "[4]; rat, plasma, Sprague-Dawley rats, 30 mg/kg oral dose, read-out: combined, mean % F", "value": "~31", "unit": "%"}, {"measurement": "inhibition of 1A1", "setting": "1A1", "value": "very weakly inhibited"}, {"measurement": "inhibition of 2D6", "setting": "2D6", "value": "very weakly inhibited"}, {"measurement": "substrate for CYP2C9", "setting": "CYP2C9", "value": "a substrate"}, {"measurement": "metabolism by CYP3A4", "setting": "CYP3A4", "value": "metabolized predominantly"}, {"measurement": "inhibition at 50 µM", "setting": "OCT2", "value": "< 50", "unit": "%"}, {"measurement": "ApoE gene expression induction", "setting": "ApoE [5]", "value": "up to 40 fold"}, {"measurement": "EC50", "setting": "LXRα", "value": 0.336, "unit": "µM"}, {"measurement": "Decreased white blood cell count (All grades), AE/Cycle %", "setting": "[6]; [9]", "value": 67, "unit": "%"}, {"measurement": "Neutropenia (All grades), AE/Cycle %", "setting": "[6]; [9]", "value": 67, "unit": "%"}, {"measurement": "Decreased white blood cell count (All grades), number of AEs", "setting": "[6]; Regimen 1 (Full): 80 mg twice per day daily + docetaxel 35 mg/m^2, 3 subjects, 3 cycles", "value": 2}, {"measurement": "Neutropenia (All grades), number of AEs", "setting": "[6]; Regimen 1 (Full): 80 mg twice per day daily + docetaxel 35 mg/m^2 days 1, 8, 15 of 28-day cycle, 3 subjects, 3 cycles", "value": 2}, {"measurement": "Decreased white blood cell count (All grades), number of AEs", "setting": "[6]; Regimen 2 (Reduced): 80 mg twice per day 5 days then 2 day rest + docetaxel 28 mg/m^2, 7 subjects, 20 cycles", "value": 4}, {"measurement": "Decreased white blood cell count (All grades), AE/Cycle %", "setting": "[6]; [10]", "value": 20, "unit": "%"}, {"measurement": "Neutropenia (All grades), AE/Cycle %", "setting": "[6]; [10]", "value": 5, "unit": "%"}, {"measurement": "Neutropenia (All grades), number of AEs", "setting": "[6]; Regimen 2 (Reduced): 80 mg twice per day 5 days then 2 day rest + docetaxel 28 mg/m^2 days 1, 8, 15, 7 subjects, 20 cycles", "value": 1}, {"measurement": "adverse event in one Regimen 2 subject", "setting": "[6]; one subject: docetaxel 35 mg/m^2 day 1 and 80 mg twice per day first seven days, then reduced schedule", "value": "grade 1 white blood cell decrease"}, {"measurement": "IC50", "setting": "CYP2C8", "value": 7.5, "unit": "µM"}, {"measurement": "dose-limiting toxicity (DLT)", "setting": "[7]; single agent therapy", "value": "DLT of Grade 4 neutropenia"}, {"measurement": "hyperlipidemia in treated subjects", "setting": "[7]; subjects treated", "value": "hyperlipidemia has been observed"}, {"measurement": "specificity for LXRβ than LXRα", "setting": "LXRβ; from EC50 values", "value": "approximately 2.9 fold"}, {"measurement": "EC50", "setting": "LXRβ; read-out: median effective concentration (EC50) for LXRβ", "value": 0.118, "unit": "µM"}, {"measurement": "inhibition of 2E1", "setting": "2E1", "value": "very weakly inhibited"}, {"measurement": "inhibition of 2A6", "setting": "2A6", "value": "very weakly inhibited"}, {"measurement": "inhibition of 2C19", "setting": "2C19", "value": "very weakly inhibited"}, {"measurement": "compound-related effects on qualitative ECG parameters (PR or QTc intervals or QRS duration)", "setting": "[8]", "value": "no"}, {"measurement": "mean heart rate", "setting": "[8]; Day 1 post-dose interval, significant in females at 150 (stepped down to 100) mg/kg/day, not considered adverse", "value": "dose related decrease in mean heart rate"}]}]}
